Key:
[1] = test system: tumor cells derived from ATL acute patients; experiment: Apoptosis assay (annexin V-FITC/PI, DIOC), acute ATL cells; assay type: cell-based, human
Procedure: Two million of PBMC from HTLV-1 patients were treated for 96 h with IL-2 and PHA in the presence or absence of A24 (10 μg/ml), 30.9 (10 μg/ml) or of the apoptosis-inducing agent VP16 (100 ng/ml). Cells were then washed with ice-cold PBS and incubated with a combination of annexin V-FITC and propidium iodide (PI) (Beckman-Coulter, Marseilles, France), according to the manufacturer recommendations. Alternatively, the apoptosis was evaluated through mitochondrial membrane depolarization with the DIOC staining (Molecular Probes) as described earlier (ZERMATI et al., J Exp Med., 193, 247-254, 2001).
Fe deprivation induces a variety of consequences, such as the reduction of cell proliferation and the activation of programmed cell death (HAQ et al., Exp Hematol., 23, 428-432, 1995), a phenomenon associated with phosphatidylserine exposure and mitochondrial membrane depolarization. […] The results are shown of FIGS. 7 A and 7B.
Comparative effect of A24, 30.9 and VP 16 on the induction of programmed cell death in selected cells. Cells were activated or not with PHA and IL-2 and incubated in the presence of 30.9, A24 and VP16. Apoptotic and necrotic cells were followed by flow cytometry using an annexin-V-FITC/PI kit. […] Data represents one out of three different experiments.

CD20 = biological target: T1, CD20 (Homo sapiens, UniProt P11836); experiment: CD20 expression at the surface of MCL cell lines, flow cytometry; assay type: cell-based; details: Rituximab 10 μg/ml, 30 minutes to 72 hours
T1 construct: target receptors TfR and CD20 at the surface of a MCL cell line EBV+ and a MCL cell line EBV^−; endogenous in cells; host or cells: MCL-derived B-cell lines (EBV+ and EBV-)
T1 sequence (P11836 1-297): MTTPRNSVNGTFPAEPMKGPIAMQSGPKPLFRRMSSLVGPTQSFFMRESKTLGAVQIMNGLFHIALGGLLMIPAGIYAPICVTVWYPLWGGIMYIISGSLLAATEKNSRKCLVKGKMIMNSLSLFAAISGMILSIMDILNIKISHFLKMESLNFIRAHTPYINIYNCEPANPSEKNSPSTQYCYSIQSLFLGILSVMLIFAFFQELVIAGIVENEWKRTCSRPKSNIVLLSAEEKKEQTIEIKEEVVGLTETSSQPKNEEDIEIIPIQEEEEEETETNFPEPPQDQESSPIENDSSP
Excerpt: In a first time, we checked by flow cytometry the rate of expression of TfR and CD20 on […] B-cells lines (EBV+ and EBV^−) derived from MCL5. using an anti-CD71-PE antibody (Beckman-Coulter) and an anti-CD20-PE antibody (Becton Dickinson). The results are shown on FIGS. 8 A and B. The gray histograms respectively represent the rate of expression of the CD71 (A) and of the CD20 (B) at the surface of MCL cells EBV+ (a,b,c,e,f,g) or EBV^− (d). This rate is specified on each histogram after substraction of the background noise of the staining.
The results are shown on FIGS. 9A (A24) and 9B (Rituximab).

EBV+ and EBV− MCL lines = experiment: MCL cell proliferation, radioactive thymidine incorporation; assay type: cell-based, human; details: 72 hours, […] to 20 μg/ml
Excerpt: The cellular proliferation is expressed as a percent of the proliferation of untreated control cells. The results are shown on FIG. 10.

[2] = test system: resting T cells co-cultured with dendritic cells; experiment: Allogeneic Mixed Leukocyte Reaction (MLR), DC-induced T cell proliferation; assay type: cell-based, human; details: 6 days of culture
Excerpt: Peripheral blood mononuclear cells (PBMC) were isolated as described earlier by the standard Ficoll-Paque method (Amersham Life Science, Buckinghamshire, U.K.) (BAZARBACHI et al, Blood., 93, 278-283, 1999). The healthy volunteers and the 4 acute and 3 chronic ATL patients (classified following Shirono criteria) (SHIRONO et al., Leukemia., 8, 1834-1837, 1994) had all given their informed consent. ATL tumor cells represented between 60-90% of the T cell population. Each cell type was freshly cultured in conditioned RPMI-1640 medium supplemented with 10% of fetal calf serum (FCS, Gibco BRL) and a mixture of interleukin-2 (20 U/ml IL-2) and phytohemagglutinin (4 μg/ml PHA). Mixed leukocyte reaction (MLR) was performed as described earlier (TORDJMAN et al., Nat Immunol., 3, 477-482, 2002). CIB tropical spastic paraparesis (HAM/TSP) cell line was cultured in RPMI-1640 medium supplemented with 10% of FCS.
To test if A24 could also block physiologically activated T cell proliferation, we examined the effect of A24 in allogeneic Mixed Leukocyte Reaction (MLR). DC-induced allogenic T cell proliferation was evaluated after 6 days of culture in the presence of A24, control antibody (30.9) or arsenic trioxide (Ars). The results are shown in FIG. 1 B. Data represents means SD of one out of three separate experiments. […]

[3] = test system: HTLV-1 infected T cell clones; experiment: Emergence of HTLV-1 infected T cell clones, 2-week culture; assay type: cell-based, human; details: chronic ATL PBMC, single dose on first day, 2 weeks
Procedure: HTLV-1 infected cells can proliferate in vitro, but the clones that proliferate in culture are generally not the same as those that proliferate in the patient. To verify if A24 could inhibit the emergence of HTLV-1 infected T cell clones, we cultured cells freshly isolated from patients and from healthy individuals in the presence or absence of A24. PBMC from HTLV-1 infected patients with a chronic ATL form were plated in culture wells with the 30.9, A24 or Ars for 2 weeks. Emergence of HTLV-1 clones was evaluated by [3H] thymidine incorporation. After 2 weeks of culture, the appearance of proliferating cells was assessed by [3H] thymidine incorporation.

[4] = test system: peripheral blood leukocytes (PBMC); experiment: Proliferation of PHA/IL-2-activated PBMC from healthy individuals, [3H]-thymidine incorporation; assay type: cell-based, human; details: PHA/IL-2, 72 h
Procedure: (§1) PBMC were resuspended in RPMI-1640 with 10% FCS, and added in triplicates at the concentration of 10^5 cells/well in 96-well tissue culture plates (Falcon, Oxnard, Calif.). Proliferation was measured over 18 h, using pulses with 1 μCi/well of [^3H]-thymidine (Amersham Life Science, Buckinghamshire, U.K.). Cells were then harvested with a 96-well Harvester (Pharmacia, St. Quentin, France), collected on filters (Pharmacia) and the incorporation of [^3H] thymidine was measured with β-plate microscintillation counter (LKB, Pharmacia).
To investigate the activity of A24 on peripheral blood leukocytes (PBMC) proliferation, cells were activated with PHA/IL-2 and incubated with different concentrations of A24 (0 to 50 μg/ml) or control antibody (30.9) (0 to 50 μg/ml) for 72 h before [^3H]-thymidine incorporation.
(§2) TfR expression is essential for the proliferation of both normal and malignant T cells. While TfR expression in normal T cells is tightly coupled to interleukin-2 receptor expression, TfR expression in malignant cells is usually constitutive. It was previously shown that the anti-IL-2Rα can efficiently block the ex vivo proliferation of cells derived from chronic ATL patients. […] Proliferation of these cells was then measured by [^3H] thymidine incorporation. […]

[5] = test system: PBMC from HTLV-I infected patients with acute or chronic ATL; experiment: Proliferation of PBMC from ATL patients, PHA/IL-2, [3H] thymidine incorporation; assay type: cell-based, human; details: PHA/IL-2, 72 h
Procedure: as §1
PBMC from healthy individuals (a) and HTLV-I infected patients with an acute ATL (b) or a chronic ATL (c) were plated in culture wells with A24 or a control antibody (30.9) in the presence of PHA/IL-2, for 72 h before [3H] thymidine incorporation. The results are shown on FIG. 2C.
as §2

COc1cc([C@@H]2c3cc4c(cc3[C@@H](O[C@@H]3O[C@@H]5CO[C@@H](C)O[C@H]5[C@H](O)[C@H]3O)[C@H]3COC(=O)[C@H]23)OCO4)cc(OC)c1O [VP 16]
annexin-V staining ([1]; A24 10 μg/ml, VP16 100 ng/ml, 96 h): a large population that stained brightly with annexin-V appeared | DIOC staining (mitochondrial depolarization) ([1]; activated leukocytes from ATL acute patient): drastic reduction

Rituximab: anti-CD20 antibody manufactured by Genentech
expression of the CD20 (CD20): does not induce notable reduction | inhibition of MCL proliferation (EBV+ and EBV− MCL lines): ≤ 20%

arsenic trioxide
effect on T cell proliferation [2]: block T cell proliferation | effect on proliferation of HTLV-1 infected T cell clones [3]: more efficient than A24

B1: anti-IL-2Rα: anti-IL-2Rα monoclonal antibody (Zenapax from Hoffmann-La Roche) (antibody, chains of the INN, looked up, V domains shown)
VH: QVQLVQSGAEVKKPGSSVKVSCKASGYTFTSYRMHWVRQAPGQGLEWIGYINPSTGYTEYNQKFKDKATITADESTNTAYMELSSLRSEDTAVYYCARGGGVFDYWGQGTLVTVSS
VL: DIQMTQSPSTLSASVGDRVTITCSASSSISYMHWYQQKPGKAPKLLIYTTSNLASGVPARFSGSGSGTEFTLTISSLQPDDFATYYCHQRSTYPLTFGQGTKVEVK
effect on PHA/IL-2-induced cell proliferation [4]: significantly inhibited | effect on cell proliferation, acute ATL ([5]; acute ATL): did not block | effect on cell proliferation, chronic ATL ([5]; chronic ATL): significantly inhibited
